ChEMBL document CHEMBL6109109, “Fatty acid binding protein 5 inhibitors as novel anticancer agents against metastatic castration-resistant prostate cancer” (Bioorg Med Chem, 2025)

Legend:
[1] = tested on: PC-3; test: Induction of apoptosis in human PC-3 cells assessed as late apoptotic cells at 15 uM measured after 72 hrs by Annexin V-FITC/propidium iodide staining based FACS analysis (reference value: 1.73%); assay type: functional
[2] = tested on: PC-3; test: Induction of apoptosis in human PC-3 cells assessed as necrotic cells at 15 uM measured after 72 hrs by Annexin V-FITC/propidium iodide staining based FACS analysis (reference value: 0.11%); assay type: functional
[3] = tested on: PC-3; test: Cytotoxicity against human PC-3 cells assessed as reduction in cell viability measured after 72 hrs by MTT assay; assay type: functional, cell-based; conditions: PC-3, 72 h
[4] = Cytotoxicity against human WI-38 cells assessed as reduction in cell viability measured after 72 hrs by MTT assay; assay type: toxicity, cell-based
[5] = tested on: PC-3; test: Induction of apoptosis in human PC-3 cells assessed as viable cells at 15 uM measured after 72 hrs by Annexin V-FITC/propidium iodide staining based FACS analysis (reference value: 97.62%); assay type: functional; conditions: read-out: Activity
[6] = tested on: PC-3; test: Induction of apoptosis in human PC-3 cells assessed as early apoptotic cells at 15 uM measured after 72 hrs by Annexin V-FITC/propidium iodide staining based FACS analysis (reference value: 0.54%); assay type: functional
[7] = Cytotoxicity against mouse RCap cells assessed as reduction in cell viability measured after 72 hrs by MTT assay; assay type: functional, cell-based
[8] = tested on: PC-3; test: Cytotoxicity against human PC-3 cells assessed as cell growth inhibition at 0.01 uM measured after 72 hrs by MTT assay relative to control; assay type: functional; conditions: read-out: GI
[9] = Cytotoxicity against mouse RCaP cells assessed as cell growth inhibition at 0.01 uM measured after 72 hrs by MTT assay relative to control; assay type: functional; conditions: read-out: GI
[10] = tested on: PC-3; test: Cytotoxicity against human PC-3 cells assessed as cell growth inhibition at 10 uM measured after 72 hrs by MTT assay relative to control; assay type: functional; conditions: read-out: GI
[11] = tested on: PC-3; test: Cytotoxicity against human PC-3 cells assessed as cell growth inhibition at 0.00001 uM measured after 72 hrs by MTT assay relative to control; assay type: functional; conditions: dose 1e-05 µM, read-out: GI
[12] = Cytotoxicity against mouse RCaP cells assessed as cell growth inhibition at 0.001 uM measured after 72 hrs by MTT assay relative to control; assay type: functional; conditions: read-out: GI
[13] = Cytotoxicity against mouse RCaP cells assessed as cell growth inhibition at 10 uM measured after 72 hrs by MTT assay relative to control; assay type: functional; conditions: read-out: GI
[14] = tested on: PC-3; test: Cytotoxicity against human PC-3 cells assessed as cell growth inhibition at 1 uM measured after 72 hrs by MTT assay relative to control; assay type: functional; conditions: read-out: GI
[15] = Cytotoxicity against mouse RCaP cells assessed as cell growth inhibition at 0.1 uM measured after 72 hrs by MTT assay relative to control; assay type: functional; conditions: read-out: GI
[16] = tested on: PC-3; test: Cytotoxicity against human PC-3 cells assessed as cell growth inhibition at 0.0001 uM measured after 72 hrs by MTT assay relative to control; assay type: functional; conditions: read-out: GI
[17] = Cytotoxicity against mouse RCaP cells assessed as cell growth inhibition at 0.0001 uM measured after 72 hrs by MTT assay relative to control; assay type: functional; conditions: read-out: GI
[18] = Cytotoxicity against mouse RCaP cells assessed as cell growth inhibition at 0.00001 uM measured after 72 hrs by MTT assay relative to control; assay type: functional; conditions: dose 1e-05 µM, read-out: GI
[19] = Cytotoxicity against mouse RCaP cells assessed as cell growth inhibition at 1 uM measured after 72 hrs by MTT assay relative to control; assay type: functional; conditions: read-out: GI
[20] = tested on: PC-3; test: Cytotoxicity against human PC-3 cells assessed as cell growth inhibition at 0.001 uM measured after 72 hrs by MTT assay relative to control; assay type: functional; conditions: read-out: GI
[21] = tested on: PC-3; test: Cytotoxicity against human PC-3 cells assessed as cell growth inhibition at 0.1 uM measured after 72 hrs by MTT assay relative to control; assay type: functional; conditions: read-out: GI
[22] = Binding affinity to FABP5 (unknown origin); parameters: species or system Homo sapiens

| SMILES | IC50 [3] | IC50 at 72 h [4] | IC50 [7] | Ki [22] | also measured |
| --- | --- | --- | --- | --- | --- |
| O=C(O)[C@H]1[C@@H](c2ccccc2)[C@H](C(=O)Oc2cccc3ccccc23)[C@@H]1c1ccccc1 | 15.9 µM | 83.3 µM | 33.4 µM | – | Activity [1]: 3.13%; Activity [2]: 0.21%; viability at 15 µM [5]: 95.4%; Activity [6]: 1.22% |
| CC[C@@]1(O)C(=O)OCc2c1cc1n(c2=O)Cc2cc3c(CN(C)C)c(O)ccc3nc2-1 [TOPOTECAN] | – | – | – | – | inhibition of growth at 0.01 µM [8]: 20.1%; inhibition of growth at 0.01 µM [9]: 9.17%; inhibition of growth at 10 µM [10]: 69.2%; inhibition of growth at 10 pM [11]: -4.4%; inhibition of growth at 0.001 µM [12]: 0.1%; inhibition of growth at 10 µM [13]: 89.6%; inhibition of growth at 1 µM [14]: 67.1%; inhibition of growth at 0.1 µM [15]: 66%; inhibition of growth at 0.0001 µM [16]: -2.77%; inhibition of growth at 0.0001 µM [17]: -3.2%; inhibition of growth at 10 pM [18]: -1.57%; inhibition of growth at 1 µM [19]: 93.6%; inhibition of growth at 0.001 µM [20]: 1.13%; inhibition of growth at 0.1 µM [21]: 55.9% |
| O=C(O)[C@H]1[C@H](c2ccccc2)[C@@H](C(=O)Oc2cc(-c3ccc4c(c3)OCO4)ccc2-c2ccccc2)[C@H]1c1ccccc1 | 9.76 µM | 22.4 µM | 5.53 µM | 1.17 µM | – |
| COc1ccccc1[C@H]1[C@H](C(=O)O)[C@H](c2ccccc2OC)[C@H]1C(=O)Oc1cccc(-c2ccc3c(c2)OCCO3)c1 | 13 µM | 54.7 µM | 12.5 µM | 1.56 µM | – |
| Cn1cc(-c2ccc(-c3ccc4c(c3)OCO4)cc2OC(=O)[C@H]2[C@@H](c3ccccc3)[C@@H](C(=O)O)[C@@H]2c2ccccc2)cn1 | 10.3 µM | 26.4 µM | 6.16 µM | 0.76 µM | – |
| O=C(O)[C@H]1[C@H](c2ccccc2)[C@@H](C(=O)Oc2cccc(-c3ccc4c(c3)OCCO4)c2)[C@H]1c1ccccc1 | 9.5 µM | 31.8 µM | 13.6 µM | 2.47 µM | – |
| N#CCc1ccc(-c2ccccc2)cc1OC(=O)[C@H]1[C@@H](c2ccccc2)[C@H](C(=O)O)[C@@H]1c1ccccc1 | 9.47 µM | 47.3 µM | 22.4 µM | 0.64 µM | – |
| O=C(O)[C@@H]1[C@@H](c2ccccc2)[C@H](C(=O)OCc2cccc3ccccc23)[C@H]1c1ccccc1 | 13.1 µM | 27.1 µM | 23.9 µM | 5.08 µM | – |
| COc1ccccc1[C@H]1[C@H](C(=O)O)[C@H](c2ccccc2OC)[C@H]1C(=O)Oc1cc(-c2ccc(C#N)cc2)ccc1-c1ccccc1 | 4.82 µM | > 100 µM | 14.5 µM | 0.62 µM | – |
